Measured values: PubChem BioAssay AID328 (DTP/NCI, 2004)
Values joined by “and” are separate entries in the source; they are usually repeats but may differ in a detail not shown here. Identical values can stand only once. Toxic doses and inconclusive results are not listed.

System: BDF1 mice, P388 leukemia ip, median survival T/C
Assay: NCI In Vivo Anticancer Drug Screen. Data for tumor model P388 Leukemia (intraperitoneal) in B6D2F1 (BDF1) mice
Details: endpoint: median survival time, higher = longer survival
In short: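 Mice carrying the transplantable tumour receive compound or vehicle. Survival is followed in each arm, and the treated measure is divided by the vehicle measure.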

[1] = dose: 50.0 mg/kg/injection, schedule: Q01DX009 (ip), vehicle: saline with Tween-80
[2] = dose: 200.0 mg/kg/injection, schedule: Q01DX009 (ip), vehicle: saline with Tween-80
[3] = dose: 100.0 mg/kg/injection, schedule: Q04DX003 (ip), vehicle: Klucel (hydroxypropylcellulose) (HPC)
[4] = dose: 100.0 mg/kg/injection, schedule: Q04DX003 (ip), vehicle: saline
[5] = dose: 100.0 mg/kg/injection, schedule: Q01DX009 (ip), vehicle: saline
[6] = dose: 200.0 mg/kg/injection, schedule: Q01DX009 (ip), vehicle: saline
[7] = dose: 400.0 mg/kg/injection, schedule: Q01DX009 (ip), vehicle: saline

## CCCCCCC(=O)CC(SCC)c1ccc(Cl)cc1Cl (stereo not drawn)
[1]
  T/C: 98 % of control
dose: 100.0 mg/kg/injection, schedule: Q01DX009 (ip), vehicle: saline with Tween-80
  T/C: 104 % of control
[2]
  T/C: 104 % of control

## O=N[O-].O=N[O-].O=N[O-].[Co+3].[NH-]CC[N-]CC[NH-]
[1]
  T/C: 111 % of control

## Cc1ccn(C(=O)CC#N)n1
dose: 75.0 mg/kg/injection, schedule: Q01DX009 (ip), vehicle: saline with Tween-80
  T/C: 91 % of control
dose: 150.0 mg/kg/injection, schedule: Q01DX009 (ip), vehicle: saline with Tween-80
  T/C: 97 % of control
dose: 300.0 mg/kg/injection, schedule: Q01DX009 (ip), vehicle: saline with Tween-80
  T/C: 92 % of control

## COc1ccc2nc3cc(Cl)ccc3c(NCCO)c2c1
dose: 37.5 mg/kg/injection, schedule: Q01DX010 (ip), vehicle: saline
  T/C: 100 % of control
dose: 75.0 mg/kg/injection, schedule: Q01DX010 (ip), vehicle: saline
  T/C: 100 % of control
dose: 150.0 mg/kg/injection, schedule: Q01DX010 (ip), vehicle: saline
  T/C: 100 % of control

## NC(CSC(c1ccccc1)(c1ccccc1)c1ccccc1)C(=O)O (stereo not drawn)
dose: 3.0 mg/kg/injection, schedule: Q01DX009 (ip), vehicle: Klucel (hydroxypropylcellulose) (HPC)
  T/C: 122 % of control
dose: 4.8 mg/kg/injection, schedule: Q04DX003 (ip), vehicle: Klucel (hydroxypropylcellulose) (HPC)
  T/C: 108 % of control
dose: 7.2 mg/kg/injection, schedule: Q04DX003 (ip), vehicle: Klucel (hydroxypropylcellulose) (HPC)
  T/C: 100 % of control
dose: 10.0 mg/kg/injection, schedule: Q01DX009 (ip), vehicle: Klucel (hydroxypropylcellulose) (HPC)
  T/C: 175 % of control
dose: 14.4 mg/kg/injection, schedule: Q01DX009 (ip), vehicle: other
  T/C: 150 % of control
dose: 16.0 mg/kg/injection, schedule: Q01DX009 (ip), vehicle: Klucel (hydroxypropylcellulose) (HPC)
  T/C: 177 % of control
dose: 24.0 mg/kg/injection, schedule: Q01DX009 (ip), vehicle: other
  T/C: 115 % of control
dose: 25.0 mg/kg/injection, schedule: Q01DX009 (ip), vehicle: Klucel (hydroxypropylcellulose) (HPC)
  T/C: 200 % of control and 204 % of control
dose: 25.0 mg/kg/injection, schedule: Q04DX003 (ip), vehicle: Klucel (hydroxypropylcellulose) (HPC)
  T/C: 231 % of control
dose: 35.0 mg/kg/injection, schedule: Q01DX009 (ip), vehicle: Klucel (hydroxypropylcellulose) (HPC)
  T/C: 227 % of control
dose: 40.0 mg/kg/injection, schedule: Q01DX009 (ip), vehicle: other
  T/C: 123 % of control
dose: 50.0 mg/kg/injection, schedule: Q01DX009 (ip), vehicle: Klucel (hydroxypropylcellulose) (HPC)
  T/C: 86 % of control
dose: 50.0 mg/kg/injection, schedule: Q04DX003 (ip), vehicle: Klucel (hydroxypropylcellulose) (HPC)
  T/C: 186 % of control
dose: 66.0 mg/kg/injection, schedule: Q04DX003 (ip), vehicle: saline
  T/C: 272 % of control
[3]
  T/C: 240 % of control
[4]
  T/C: 90 % of control

## N#Cc1cnccn1
[5]
  T/C: 100 % of control
[6]
  T/C: 100 % of control
[7]
  T/C: 87 % of control

## CC(C)c1c[nH]c(=O)[nH]c1=O
dose: 100.0 mg/kg/injection, schedule: Q01DX001 (ip), vehicle: saline
  T/C: 100 % of control
[3]
  T/C: 104 % of control
dose: 200.0 mg/kg/injection, schedule: Q01DX001 (ip), vehicle: saline
  T/C: 95 % of control
dose: 200.0 mg/kg/injection, schedule: Q04DX003 (ip), vehicle: Klucel (hydroxypropylcellulose) (HPC)
  T/C: 90 % of control
dose: 400.0 mg/kg/injection, schedule: Q01DX001 (ip), vehicle: saline
  T/C: 100 % of control
dose: 400.0 mg/kg/injection, schedule: Q04DX003 (ip), vehicle: Klucel (hydroxypropylcellulose) (HPC)
  T/C: 104 % of control

## CCC(CO)NC(=O)/C=C/c1ccccc1 (stereo not drawn)
[2]
  T/C: 91 % of control
dose: 400.0 mg/kg/injection, schedule: Q01DX009 (ip), vehicle: saline with Tween-80
  T/C: 91 % of control

## N#[N+]c1ccc2c(S(=O)(=O)O)cccc2c1O
[5]
  T/C: 92 % of control
[4]
  T/C: 100 % of control
[6]
  T/C: 103 % of control
dose: 200.0 mg/kg/injection, schedule: Q04DX003 (ip), vehicle: saline
  T/C: 108 % of control
[7]
  T/C: 89 % of control
dose: 400.0 mg/kg/injection, schedule: Q04DX003 (ip), vehicle: saline
  T/C: 95 % of control
